Earlier results on two compounds are cited in patent US20170231974A1, “Combined Use of an Alpha-Adrenergic Receptor Antagonist and an Anti-Muscarinic Agent” (Astellas Ireland Co., Ltd., priority 2008, published 2017).

Molecules are shown by their SMILES. Where a name gives a salt, the structure may show the parent alone.

The subject of this series is male patients with lower urinary tract symptoms associated with prostatic hyperplasia.
Setting [1] is: male patients, at least 1 urgency episode per day and 8 or more micturitions per day.

As for `CCCOC(C(=O)OC1CCN(C)CC1)(c1ccccc1)c1ccccc1` [Propiverine, propiverine hydrochloride], under “added to doxazosin”, the “acute urinary retention (AUR)” value was “no acute urinary retention (AUR) was observed” and the “effect on urinary flow rate” value is given as “did not affect the urinary flow rate”.

Take `COc1cc2nc(N3CCN(C(=O)C4COc5ccccc5O4)CC3)nc(N)c2cc1OC` (centres unmarked) [doxazosin]: under setting [1], the “improvement of storage symptom score” value is 2.9 points, the “improvement of total I-PSS” value was 7.3 points and the “improvement of voiding score” value is listed as 4.5 points.
